Results taken from patent publication US5756538A, “Flavonoid and biflavonoid derivatives, their pharmaceutical compositions, their anxiolytic activity” (University of Strathclyde, priority 1993, dated 1998).
Like-named read-outs stand apart in the source and are kept apart here.

Tests used:
[1] = tested on: locus coeruleus noradrenaline; assay: Noradrenaline levels in locus coeruleus after immobilization stress; assay type: in vivo, rats; conditions: 1 mg/kg i.p., 30 min before 90-min stress session
Protocol: Rats were submitted to a 90-minute immobilization stress session in a plastic cylinder. The locus coeruleus was dissected out after killing by decapitation and noradrenaline assessed by HPLC with electrochemical detection. Doses were 1 mg/kg for each substance, injected i.p., 30 minutes before the stress session.

benzodiazepine receptor = assay: Competitive inhibition of 3H-flunitrazepam binding to benzodiazepine receptor (cerebral cortical membranes); parameters: species or system bovine
Protocol: (Competitive inhibition of H^3 -flunitrazepam to benzodiazepine receptor)
Binding of 3H-flunitrazepam (0.7 nM) to the benzodiazepine receptor was carried out in extensively washed cerebral cortical membranes.
H^3 -flunitrazepam has a Ki of […] to the benzodiazepine receptor.
IC50 values were obtained using flavonoids at different concentrations (10^-10 to 10^-3 M).
Structure - activity relationships of several flavonoids on
the ^3 H Flunitrazepam binding to bovine brain membranes.

[2] = Medina et al. 1990; cited from earlier work
mice [3] = assay: Elevated plus maze (anxiety); assay type: in vivo, mice (male CF1); conditions: for Total arm entries: 5 min test, mean ± S.E.M.
Protocol: (a) Elevated Plus Maze: consisted of 4 perpendicularly disposed wood arms (20×5 cm; two had 35 cm high wood walls, and two were open) linked by a central 10×10 cm square. The maze was suspended 50 cm from the room floor. Animals were placed on the central part of the maze facing a closed arm. This test has been widely validated to measure anxiety in rodents. The number of entries into and the time spent in the open and closed arms were counted during 5 min. […] Total exploratory activity (number of entries in both arms) was also determined.
(§1) All the injections were given intraperitoneally (i.p.). […] Testing was carried out `blind`. All data were submitted to analysis of variance (ANOVA).

mice [4] = assay: Locomotor activity test (OPTO-VARIMEX); conditions: 0.6-1 mg/kg i.p., 20 min after injection
Protocol: Male CF1 mice from our breeding stock weighing 28-35 g were used. The animals were placed in groups of 10-12 with free access to water and food, and maintained on a 12 h/12 h day-night cycle.
Diazepam (DZ; Hoffman-La Roche) and the flavonoids were dissolved in DMSO 40%, NaOH 0.1N (7:3: v/v) at pH 8.2 Control animals were injected with the same vehicle (VEH). RO 15-1788 (Hoffmann-La Roche) was suspended in DMSO 10%, propyleneglycol 10% in distilled water.
(c) Locomotor Activity Test: we used an OPTO-VARIMEX apparatus consisting of a glass box (36×15×20 cm) and two lateral bars with 15 light beams (0.32 cm diameter, beam spacing 2.65 cm). The apparatus detects automatically all the mouse movements, and discriminates between total and ambulatory activity. The locomotor activity (number of movements across the beams) was counted during 5 min. An increase in the number of transitions through the beams reflects an augmented locomotor activity.
The general procedure for all the tests is as follows: mice were injected with vehicle or the drug solution 20 min before the beginning of the test and put into another home cage. Ro 15-1788, a specific BZD receptor antagonist was injected 10 min before the tested drug. All the injections were given intraperitoneally (i.p.). Control mice were tested in each session, in parallel with those animals receiving the test drug or diazepam. Testing was carried out `blind`. All data were submitted to analysis of variance (ANOVA). Post-hoc comparisons between individual treatments and controls were made using Dunnett's t-test.
FIGS. 15, 16, 17 and 18 show ambulatory locomoter activity counts during a 5 min. test session in an OPTO-Varimex apparatus, 20 min. after i.p. injection with a mixture of brominated flavones (0.6,1,3 mg/kg), FIG. 15; 2' chlorinated chrysin (1,3 mg/kg); FIG. 16; 2' fluorinated chrysin (3 mg/kg), FIG. 17; 6,8 dibromoflavone, FIG. 18. Data are expressed as medians (interquartile range) of (n) number of animals.

benzodiazepine receptors = conditions: Medina et al. 1990; cited from earlier work
mice [5] = assay: Horizontal wire test (muscle relaxation); assay type: in vivo, mice (male CF1)
Protocol: (d) Horizontal Wire Test: It consisted of an horizontally strung wire (1 mm diameter, 15 cm long), placed at 20 cm from the table. Mice were lifted by the tail, allowed to grasp the wire with their forepaws and released. […] After two trials, performed at 5 min. intervals, the test took place. A myorelaxant drug, like diazepam at high doses, will impair the ability of mice to grasp the wire. Generally, this state of muscle relaxation is commonly associated with sedation.
as §1
The test took place after two trials, executed after a 5 min interval.

mice [6] = assay: Holeboard test (exploratory activity, sedation); assay type: in vivo, mice (male CF1)
Protocol: (b) Holeboard Test: consisted of a wood box (60×60×30 cm) with four 2 cm diameter holes equidistant in the floor. The number of head-dips and the time spent head-dipping were counted during 5 min. An increase in the number and the time spent head-dipping implies a greater exploratory activity.
as §1

[7] = 1 mg/kg i.p., 20 min after injection

SMILES: O=c1cc(-c2ccccc2)oc2cc(O)cc(O)c12 [chrysin, 5,7-dihydroxyflavone]
- Noradrenaline decrease in locus coeruleus provoked by immobilization stress [1]: dampened the noradrenaline decrease
- Potency vs diazepam on stress-provoked noradrenaline decrease [1]: almost equipotent with diazepam
- Benzodiazepine ligand behaviour / affinity relative to 3H-flunitrazepam (benzodiazepine receptor): benzodiazepine ligand behaviour similar to that of ^3 H-flunitrazepam
- IC50 (benzodiazepine receptor; 3H-flunitrazepam 0.7 nM, read-out: IC50 at the benzodiazepine receptor): 700 to 3000 nM
- IC50 (benzodiazepine receptor; bovine brain membranes, 0.7 nM 3H-flunitrazepam, read-out: 3H Flunitrazepam binding IC50): 2000 nM
- Anticonvulsant properties [2]: anticonvulsant properties
- Percentage of entries in the open arms (mice [3]; [7]): increase in both parameters (p<0.01)
- Percentage of the time spent on the open arms (mice [3]; [7]): increase in both parameters (p<0.01)
- Total arm entries (mice [3]; [7]): 9.9 ± 0.8
- Total arm entries (mice [3]; 3 mg/kg i.p., 20 min after injection): 8.7 ± 1.1
- Total arm entries (mice [3]; 10 mg/kg i.p., 20 min after injection): 10.2 ± 1.1
- Total arm entries, with and without RO 15-1788 (mice [3]; chrysin 1 mg/kg, RO 15-1788 3 mg/kg, F (2,49)=3.18): No significant differences were found
- Anxiolytic effect in the elevated plus maze (mice [3]; i.p.): had anxiolytic effects
- Total arm entries, difference from controls (mice [3]; i.p., doses of Table I): No differences were observed
- Anxiolytic effect in the elevated plus maze (mice [3]; i.p., listed as CHRY): displayed an anxiolytic effect
- Locomotor activity (mice [4]): significant increase in locomotor activity
- Binding properties for benzodiazepine receptors (benzodiazepine receptors): binding properties for benzodiazepine receptors
- Effect in horizontal wire test / muscle relaxant effect (mice [5]; 0.6-30 mg/kg i.p.): ineffective in the same test and produced no muscle relaxant effect
- Muscle relaxation (summary) (mice [5]; i.p.): did not exhibit sedation or muscle relaxation
- Time spent head-dipping (mice [6]; 3 mg/kg i.p.): significant increase in the time spent head-dipping
- Sedative effects (mice [6]; 10 mg/kg i.p.): did not elicit sedative effects
- Sedation (summary) (mice [6]; i.p.): did not exhibit sedation
